These results are taken from patent publication US6849612B2, “Oligonucleotide modulation of cell adhesion” (ISIS Pharmaceuticals, Inc., priority 1993, dated 2005).

Strand notation (5' to 3'): a small letter for the sugar, then the base; units joined by * are phosphorothioate-linked, units joined directly phosphodiester-linked; [ ] holds rarer units or linkages, { } end groups; capitals alone tell only the bases. d = 2'-deoxy (DNA)

Data set [1] deals with adherence of HL-60 cells to human umbilical vein endothelial cells. The data set can be described thus: Cell adherence assay: DMSO differentiated HL-60 cells to TNF treated HUVEC. It counts as cell-based. The protocol: Target cells are grown as a monolayer in a multiwell plate, treated with oligonucleotide followed by cytokine. The adhering cells are then added to the monolayer cells and incubated for 30 to 60 minutes at 37° C. and washed to remove nonadhering cells. Cells adhering to the monolayer may be determined either by directly counting the adhering cells or prelabeling the cells with a radioisotope such as ^51Cr and quantitating the radioactivity associated with the monolayer as described. Dustin and Springer, J. Cell Biol. 1988, 107, 321-331. Antisense oligonucleotides may target either ICAM-1, VCAM-1 or ELAM-1 in the assay.
An example of the effects of antisense oligonucleotides targeting ICAM-1 mRNA on the adherence of DMSO differentiated HL-60 cells to tumor necrosis factor treated human umbilical vein endothelial cells is shown in FIG. 7. Human umbilical vein endothelial cells were grown to 80% confluence in 12 well plates. The cells were treated with 2 μM oligonucleotide diluted in Opti-MEM containing 8 μM DOTMA for 4 hours at 37° C. The medium was removed and replaced with fresh endothelial cell growth medium (EGM-UV) containing 2 μM of the indicated oligonucleotide and incubated 4 hours at 37° C. Tumor necrosis factor, 1 ng/ml, was added to cells as indicated and cells incubated for an additional 19 hours. The cells were washed once with EGM-UV and 1.6×10^6 HL-60 cells differentiated for 4 days with 1.3% DMSO added. The cells were allowed to attach for 1 hour at 37° C. and gently washed 4 times with Dulbecco's phosphate-buffered saline (D-PBS) warmed to 37° C. Adherent cells were detached from the monolayer by addition of 0.25 ml of cold (4EC) phosphate-buffered saline containing 5 mM EDTA and incubated on ice for 5 minutes. The number of cells removed by treatment with EDTA was determined by counting with a hemocytometer. Endothelial cells detached from the monolayer by EDTA treatment could easily be distinguished from HL-60 cells by morphological differences. In the absence of tumor necrosis factor, 3% of the HL-60 cells bound to the endothelial cells. Treatment of the endothelial cell monolayer with 1 ng/ml tumor necrosis factor increased the number of adhering cells to 59% of total cells added (FIG. 7).
Human umbilical vein endothelial (HUVEC) cells were grown and treated with oligonucleotides as in Example 4. Cells were treated with either ISIS 1939, ISIS 1940, or the control oligonucleotide ISIS 1821 for 4 hours, then stimulated with TNF-α for 20 hours. Basal HUVEC minimally bound HL-60 cells, while TNF-stimulated HUVEC bound 19% of the total cells added. Pretreatment of the HUVEC monolayer with 0.3 ìM ISIS 1939 reduced the adherence of HL-60 cells to basal levels, as shown in FIG. 11.

For the next data set, the system named is ICAM-1. The data set can be described thus: ELISA of ICAM-1 expression in primary human keratinocytes. It counts as cell-based. The method, then:
Expression of ICAM-1, VCAM-1 and ELAM-1 on the surface of cells can be quantitated using specific monoclonal antibodies in an ELISA. Cells are grown to confluence in 96 well microtiter plates. The cells are stimulated with either interleukin-1 or tumor necrosis factor for 4 to 8 hours to quantitate ELAM-1 and 8 to 24 hours to quantitate ICAM-1 and VCAM-1. Following the appropriate incubation time with the cytokine, the cells are gently washed three times with a buffered isotonic solution containing calcium and magnesium such as Dulbecco's phosphate buffered saline (D-PBS). The cells are then directly fixed on the microtiter plate with 1 to 2% paraformaldehyde diluted in D-PBS for 20 minutes at 25° C. The cells are washed again with D-PBS three times. Nonspecific binding sites on the microtiter plate are blocked with 2% bovine serum albumin in D-PBS for 1 hour at 37° C. Cells are incubated with the appropriate monoclonal antibody diluted in blocking solution for 1 hour at 37° C. Unbound antibody is removed by washing the cells three times with D-PBS. Antibody bound to the cells is detected by incubation with a 1:1000 dilution of biotinylated goat anti-mouse IgG (Bethesda Research Laboratories, Gaithersburg, Md.) in blocking solution for 1 hour at 37° C. Cells are washed three times with D-PBS and then incubated with a 1:1000 dilution of streptavidin conjugated to β-galactosidase (Bethesda Research Laboratories) for 1 hour at 37° C. The cells are washed three times with D-PBS for 5 minutes each. The amount of β-galactosidase bound to the specific monoclonal antibody is determined by developing the plate in a solution of 3.3 mM chlorophenolred-β-D-galactopyranoside, 50 mM sodium phosphate, 1.5 mM MgCl2; pH=7.2 for 2 to 15 minutes at 37° C. The concentration of the product is determined by measuring the absorbance at 575 nm in an ELISA microtiter plate reader. […]
Cells grown in 96-well plates were washed three times with Opti-MEM (GIBCO, Grand Island, N.Y.) prewarmed to 37° C. […] ICAM-1 expression was determined as described in Example 1. […]
(In general: An ELISA detects its analyte on a solid surface through an enzyme-linked reagent.)

Take “ISIS 1570: phosphorothioate, human ICAM-1 AUG Codon (64-81), SEQ ID NO 1, TGGGAGCCATAGCGAGGC (antisense dT*dG*dG*dG*dA*dG*dC*dC*dA*dT*dA*dG*dC*dG*dA*dG*dG*dC)”: the “HL-60 cells adhering, % of total cells added” value in data set [1] (2 μM oligonucleotide, HUVEC treated with 1 ng/ml tumor necrosis factor, control 59%) is listed as 17%. Besides, the “number of HL-60 cells adhering to the monolayer” value in data set [1] (2 μM oligonucleotide, absence of tumor necrosis factor treatment) is “did not change the number of cells adhering”. Besides, the “inhibition of ICAM-1 expression” value in the data set with ICAM-1 is on record as “inhibit ICAM-1 expression”.

With “ISIS 1939: P=S, human ICAM-1 3′-Untranslated (1952-1971), SEQ ID NO 15, CCCCCACCACTTCCCCTCTC (antisense dC*dC*dC*dC*dC*dA*dC*dC*dA*dC*dT*dT*dC*dC*dC*dC*dT*dC*dT*dC)”, in data set [1] (0.3 μM oligonucleotide, TNF-α stimulated HUVEC (control bound 19%)), the “adherence of HL-60 cells” value is recorded as “basal levels”. For the same substance, the “inhibition of ICAM-1 expression” value in the data set on ICAM-1 is recorded as “inhibit ICAM-1 expression”.
